{"source": "paper PMC8333425", "about": "“Discovery of a dual Ras and ARF6 inhibitor from a GPCR endocytosis screen” (Nature Communications, 2021)", "assay_in_all_cases": "KINOMEscan kinase binding assay", "key": {"[1]": {"target": "T1, 384 kinases from the human genome (Homo sapiens, UniProt Q9UKE5)", "T1 construct": "purchased Eurofin/DiscoverX", "T1 sequence (Q9UKE5 whole entry)": "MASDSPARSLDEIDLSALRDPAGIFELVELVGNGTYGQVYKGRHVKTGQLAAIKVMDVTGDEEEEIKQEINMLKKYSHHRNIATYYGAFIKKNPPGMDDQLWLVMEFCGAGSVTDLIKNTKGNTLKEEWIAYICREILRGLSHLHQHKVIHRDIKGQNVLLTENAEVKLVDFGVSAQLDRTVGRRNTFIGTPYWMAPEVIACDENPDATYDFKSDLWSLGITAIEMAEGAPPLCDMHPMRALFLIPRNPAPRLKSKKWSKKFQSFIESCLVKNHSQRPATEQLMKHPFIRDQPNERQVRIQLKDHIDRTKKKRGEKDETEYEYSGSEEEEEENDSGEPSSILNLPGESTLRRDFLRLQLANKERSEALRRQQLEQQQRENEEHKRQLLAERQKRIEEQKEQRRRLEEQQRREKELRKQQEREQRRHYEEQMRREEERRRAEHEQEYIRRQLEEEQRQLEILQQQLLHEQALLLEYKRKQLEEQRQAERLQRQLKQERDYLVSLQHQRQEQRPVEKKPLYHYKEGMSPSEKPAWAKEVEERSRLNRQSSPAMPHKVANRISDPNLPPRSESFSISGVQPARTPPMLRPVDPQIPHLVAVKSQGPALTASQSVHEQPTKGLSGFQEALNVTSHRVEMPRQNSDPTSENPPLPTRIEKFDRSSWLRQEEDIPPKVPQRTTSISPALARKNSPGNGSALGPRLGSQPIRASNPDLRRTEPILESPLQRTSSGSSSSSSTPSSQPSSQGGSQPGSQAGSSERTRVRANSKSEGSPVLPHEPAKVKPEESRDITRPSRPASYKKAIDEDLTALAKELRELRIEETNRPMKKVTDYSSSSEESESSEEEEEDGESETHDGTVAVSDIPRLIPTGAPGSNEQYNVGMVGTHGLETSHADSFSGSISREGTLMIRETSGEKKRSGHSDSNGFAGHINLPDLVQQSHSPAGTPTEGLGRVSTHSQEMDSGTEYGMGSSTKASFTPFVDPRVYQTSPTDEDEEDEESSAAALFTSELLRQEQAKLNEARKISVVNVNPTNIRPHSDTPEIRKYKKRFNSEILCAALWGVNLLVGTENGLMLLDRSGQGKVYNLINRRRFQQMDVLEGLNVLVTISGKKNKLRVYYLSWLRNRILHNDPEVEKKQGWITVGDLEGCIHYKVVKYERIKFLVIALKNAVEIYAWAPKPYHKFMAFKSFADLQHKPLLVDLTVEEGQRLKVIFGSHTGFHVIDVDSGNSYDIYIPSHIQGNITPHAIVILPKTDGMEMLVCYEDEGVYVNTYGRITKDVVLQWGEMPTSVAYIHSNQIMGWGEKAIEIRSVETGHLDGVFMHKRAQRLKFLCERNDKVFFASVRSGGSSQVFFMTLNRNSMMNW", "settings": "kinase TNIK (Entrez TNIK)", "outline": "(§1)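 Competition binding (KINOMEscan) across 384 human kinases with compound at 10 µM. Ligand binding was expressed relative to DMSO (100%) as the average of duplicates from one experiment. S(10) selectivity score was derived.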"}, "[2]": {"target": "T2, 384 kinases from the human genome (Homo sapiens, UniProt Q16832)", "T2 construct": "purchased Eurofin/DiscoverX", "settings": "kinase DDR2 (Entrez DDR2)", "outline": "as §1"}, "[3]": {"target": "T3, 384 kinases from the human genome (Homo sapiens, UniProt Q14680)", "T3 construct": "purchased Eurofin/DiscoverX", "settings": "kinase MELK (Entrez MELK)", "outline": "as §1"}, "[4]": {"target": "T4, 384 kinases from the human genome (Homo sapiens, UniProt P29323)", "T4 construct": "purchased Eurofin/DiscoverX", "settings": "kinase EPHB2 (Entrez EPHB2)", "outline": "as §1"}, "[5]": {"target": "T5, 384 kinases from the human genome (Homo sapiens, UniProt P31152)", "T5 construct": "purchased Eurofin/DiscoverX", "T5 sequence (P31152 whole entry)": "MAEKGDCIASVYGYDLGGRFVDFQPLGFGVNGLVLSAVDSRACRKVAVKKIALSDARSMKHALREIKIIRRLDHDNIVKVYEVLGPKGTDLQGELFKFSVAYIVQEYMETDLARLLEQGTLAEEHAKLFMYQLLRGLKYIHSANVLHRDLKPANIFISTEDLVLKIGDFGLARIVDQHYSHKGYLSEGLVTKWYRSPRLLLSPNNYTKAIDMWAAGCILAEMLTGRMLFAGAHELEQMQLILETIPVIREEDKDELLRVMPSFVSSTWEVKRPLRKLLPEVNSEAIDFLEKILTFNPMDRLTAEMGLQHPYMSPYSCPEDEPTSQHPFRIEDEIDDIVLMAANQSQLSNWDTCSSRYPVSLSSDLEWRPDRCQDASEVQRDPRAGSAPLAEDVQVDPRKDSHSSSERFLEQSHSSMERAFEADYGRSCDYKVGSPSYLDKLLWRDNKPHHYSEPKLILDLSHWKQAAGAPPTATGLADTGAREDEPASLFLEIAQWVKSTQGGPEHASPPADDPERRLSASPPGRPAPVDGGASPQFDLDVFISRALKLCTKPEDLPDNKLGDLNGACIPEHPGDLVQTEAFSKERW", "settings": "kinase ERK4 (Entrez MAPK4)", "outline": "as §1"}, "[6]": {"target": "T6, 384 kinases from the human genome (Homo sapiens, UniProt Q99683)", "T6 construct": "purchased Eurofin/DiscoverX", "settings": "kinase ASK1 (Entrez MAP3K5)", "outline": "as §1"}, "[7]": {"target": "T7, 384 kinases from the human genome (Homo sapiens, UniProt Q9BZL6)", "T7 construct": "purchased Eurofin/DiscoverX", "T7 sequence (Q9BZL6 whole entry)": "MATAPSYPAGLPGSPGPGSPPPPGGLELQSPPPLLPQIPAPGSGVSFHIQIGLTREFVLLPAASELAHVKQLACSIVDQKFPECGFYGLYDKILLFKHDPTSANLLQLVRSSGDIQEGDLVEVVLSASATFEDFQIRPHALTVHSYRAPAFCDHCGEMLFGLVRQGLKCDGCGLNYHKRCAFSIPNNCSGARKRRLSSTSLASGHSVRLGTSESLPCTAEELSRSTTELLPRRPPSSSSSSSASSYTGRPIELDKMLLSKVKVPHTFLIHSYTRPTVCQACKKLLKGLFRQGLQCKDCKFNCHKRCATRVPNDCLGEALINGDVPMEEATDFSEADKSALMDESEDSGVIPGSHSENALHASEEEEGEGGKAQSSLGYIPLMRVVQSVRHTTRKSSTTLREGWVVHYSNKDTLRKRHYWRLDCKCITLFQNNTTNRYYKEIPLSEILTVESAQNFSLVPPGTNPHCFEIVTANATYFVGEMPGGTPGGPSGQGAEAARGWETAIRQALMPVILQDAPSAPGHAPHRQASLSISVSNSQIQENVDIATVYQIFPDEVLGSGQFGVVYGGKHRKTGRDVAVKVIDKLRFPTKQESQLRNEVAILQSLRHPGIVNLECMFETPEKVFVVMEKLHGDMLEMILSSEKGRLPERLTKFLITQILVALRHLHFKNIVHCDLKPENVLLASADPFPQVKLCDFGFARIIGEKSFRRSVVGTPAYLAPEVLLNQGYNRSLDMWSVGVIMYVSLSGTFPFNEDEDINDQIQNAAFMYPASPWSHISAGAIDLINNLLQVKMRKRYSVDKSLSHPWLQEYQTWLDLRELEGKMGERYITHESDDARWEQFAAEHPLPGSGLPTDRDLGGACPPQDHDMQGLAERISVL", "settings": "kinase PRKD2 (Entrez PRKD2)", "outline": "as §1"}, "[8]": {"target": "T8, 384 kinases from the human genome (Homo sapiens, UniProt O00750)", "T8 construct": "purchased Eurofin/DiscoverX", "settings": "kinase PIK3C2B (Entrez PIK3C2B)", "outline": "as §1"}, "[9]": {"target": "T9, 384 kinases from the human genome (Homo sapiens, UniProt P68400)", "T9 construct": "purchased Eurofin/DiscoverX", "T9 sequence (P68400 whole entry)": "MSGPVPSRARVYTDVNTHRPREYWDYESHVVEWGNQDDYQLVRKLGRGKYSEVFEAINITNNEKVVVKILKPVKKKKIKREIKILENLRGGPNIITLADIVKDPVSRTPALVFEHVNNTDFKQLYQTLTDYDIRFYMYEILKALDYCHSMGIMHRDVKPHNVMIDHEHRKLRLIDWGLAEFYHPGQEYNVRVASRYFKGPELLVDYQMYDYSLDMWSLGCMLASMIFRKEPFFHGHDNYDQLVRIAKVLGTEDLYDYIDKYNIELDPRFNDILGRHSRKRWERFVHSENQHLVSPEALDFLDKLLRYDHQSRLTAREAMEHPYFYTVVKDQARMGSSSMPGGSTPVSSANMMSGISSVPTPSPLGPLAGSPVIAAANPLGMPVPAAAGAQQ", "settings": "kinase CSNK2A1 (Entrez CSNK2A1)", "outline": "as §1"}, "[10]": {"target": "T10, 384 kinases from the human genome (Homo sapiens, UniProt Q8N4C8)", "T10 construct": "purchased Eurofin/DiscoverX", "settings": "kinase MINK (Entrez MINK1)", "outline": "as §1"}, "[11]": {"target": "T11, 384 kinases from the human genome (Homo sapiens, UniProt Q13188)", "T11 construct": "purchased Eurofin/DiscoverX", "settings": "kinase MST2 (Entrez STK3)", "outline": "as §1"}, "[12]": {"target": "T12, 384 kinases from the human genome (Homo sapiens, UniProt Q00535)", "T12 construct": "purchased Eurofin/DiscoverX", "settings": "kinase CDK5 (Entrez CDK5)", "outline": "as §1"}, "[13]": {"target": "T13, 384 kinases from the human genome (Homo sapiens, UniProt Q8IU85)", "T13 construct": "purchased Eurofin/DiscoverX", "settings": "kinase CAMK1D (Entrez CAMK1D)", "outline": "as §1"}, "[14]": {"target": "T14, 384 kinases from the human genome (Homo sapiens, UniProt P0C264)", "T14 construct": "purchased Eurofin/DiscoverX", "T14 sequence (P0C264 whole entry)": "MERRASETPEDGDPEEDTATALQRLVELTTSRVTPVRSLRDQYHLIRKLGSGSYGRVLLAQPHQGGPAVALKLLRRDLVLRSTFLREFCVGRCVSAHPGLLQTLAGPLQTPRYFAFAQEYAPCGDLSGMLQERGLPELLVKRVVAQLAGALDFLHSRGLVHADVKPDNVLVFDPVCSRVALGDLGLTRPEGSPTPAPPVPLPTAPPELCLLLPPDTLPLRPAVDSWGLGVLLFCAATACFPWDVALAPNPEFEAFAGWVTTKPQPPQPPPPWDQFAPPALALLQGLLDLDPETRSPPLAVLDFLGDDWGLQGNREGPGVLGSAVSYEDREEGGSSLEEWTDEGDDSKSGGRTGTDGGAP", "settings": "kinase SgK110 (Entrez SgK110)", "outline": "as §1"}, "[15]": {"target": "T15, 384 kinases from the human genome (Homo sapiens, UniProt P46734)", "T15 construct": "purchased Eurofin/DiscoverX", "settings": "kinase MEK3 (Entrez MAP2K3)", "outline": "as §1"}, "[16]": {"target": "T16, 384 kinases from the human genome (Homo sapiens, UniProt Q08881)", "T16 construct": "purchased Eurofin/DiscoverX", "settings": "kinase ITK (Entrez ITK)", "outline": "as §1"}, "[17]": {"target": "T17, 384 kinases from the human genome (Homo sapiens, UniProt Q6PHR2)", "T17 construct": "purchased Eurofin/DiscoverX", "T17 sequence (Q6PHR2 whole entry)": "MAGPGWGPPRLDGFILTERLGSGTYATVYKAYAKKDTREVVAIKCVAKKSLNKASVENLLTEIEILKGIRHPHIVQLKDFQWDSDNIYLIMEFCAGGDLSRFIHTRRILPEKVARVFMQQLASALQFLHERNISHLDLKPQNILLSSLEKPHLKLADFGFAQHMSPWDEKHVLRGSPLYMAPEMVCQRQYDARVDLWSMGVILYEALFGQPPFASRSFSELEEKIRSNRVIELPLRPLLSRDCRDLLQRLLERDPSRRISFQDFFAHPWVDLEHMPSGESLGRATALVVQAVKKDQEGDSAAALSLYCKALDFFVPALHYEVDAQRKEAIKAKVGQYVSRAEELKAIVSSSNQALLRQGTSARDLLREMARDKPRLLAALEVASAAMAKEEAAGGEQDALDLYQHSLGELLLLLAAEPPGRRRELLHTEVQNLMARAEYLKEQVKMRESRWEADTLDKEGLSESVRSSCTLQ", "settings": "kinase ULK3 (Entrez ULK3)", "outline": "as §1"}, "[18]": {"target": "T18, 384 kinases from the human genome (Homo sapiens, UniProt P49759)", "T18 construct": "purchased Eurofin/DiscoverX", "settings": "kinase CLK1 (Entrez CLK1)", "outline": "as §1"}, "[19]": {"target": "T19, 384 kinases from the human genome (Homo sapiens, UniProt P78362)", "T19 construct": "purchased Eurofin/DiscoverX", "settings": "kinase SRPK2 (Entrez SRPK2)", "outline": "as §1"}, "[20]": {"target": "T20, 384 kinases from the human genome (Homo sapiens, UniProt P33981)", "T20 construct": "purchased Eurofin/DiscoverX", "settings": "kinase TTK (Entrez TTK)", "outline": "as §1"}, "[21]": {"target": "T21, 384 kinases from the human genome (Homo sapiens, UniProt O60285)", "T21 construct": "purchased Eurofin/DiscoverX", "settings": "kinase ARK5 (Entrez NUAK1)", "outline": "as §1"}, "[22]": {"target": "T22, 384 kinases from the human genome (Homo sapiens, UniProt Q9H4B4)", "T22 construct": "purchased Eurofin/DiscoverX", "settings": "kinase PLK3 (Entrez PLK3)", "outline": "as §1"}, "[23]": {"target": "T23, 384 kinases from the human genome (Homo sapiens, UniProt Q8NG66)", "T23 construct": "purchased Eurofin/DiscoverX", "settings": "kinase NEK11 (Entrez NEK11)", "outline": "as §1"}, "[24]": {"target": "T24, 384 kinases from the human genome (Homo sapiens, UniProt P32298)", "T24 construct": "purchased Eurofin/DiscoverX", "settings": "kinase GRK4 (Entrez GRK4)", "outline": "as §1"}, "[25]": {"target": "T25, 384 kinases from the human genome (Homo sapiens, UniProt Q8TDC3)", "T25 construct": "purchased Eurofin/DiscoverX", "T25 sequence (Q8TDC3 whole entry)": "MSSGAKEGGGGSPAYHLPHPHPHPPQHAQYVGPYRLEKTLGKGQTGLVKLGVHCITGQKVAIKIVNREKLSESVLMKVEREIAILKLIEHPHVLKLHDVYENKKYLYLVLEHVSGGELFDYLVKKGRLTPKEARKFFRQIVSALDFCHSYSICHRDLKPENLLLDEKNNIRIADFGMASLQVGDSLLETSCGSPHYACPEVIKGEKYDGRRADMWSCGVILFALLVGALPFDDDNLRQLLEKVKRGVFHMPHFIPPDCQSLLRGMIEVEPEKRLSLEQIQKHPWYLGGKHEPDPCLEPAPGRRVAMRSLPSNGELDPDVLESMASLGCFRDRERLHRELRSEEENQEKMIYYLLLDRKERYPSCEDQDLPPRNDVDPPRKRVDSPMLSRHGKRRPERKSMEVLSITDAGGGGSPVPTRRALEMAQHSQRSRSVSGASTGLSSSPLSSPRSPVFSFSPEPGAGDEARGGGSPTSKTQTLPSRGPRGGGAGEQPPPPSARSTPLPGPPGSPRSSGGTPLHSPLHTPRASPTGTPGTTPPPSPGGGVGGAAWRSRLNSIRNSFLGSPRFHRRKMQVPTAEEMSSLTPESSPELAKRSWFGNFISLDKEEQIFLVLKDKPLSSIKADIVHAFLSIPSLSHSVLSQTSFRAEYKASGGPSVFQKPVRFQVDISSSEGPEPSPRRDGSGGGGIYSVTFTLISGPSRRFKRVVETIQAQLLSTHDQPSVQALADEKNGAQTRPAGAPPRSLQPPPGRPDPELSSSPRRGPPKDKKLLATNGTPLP", "settings": "kinase BRSK1 (Entrez BRSK1)", "outline": "as §1"}, "[26]": {"target": "T26, 384 kinases from the human genome (Homo sapiens, UniProt Q96PY6)", "T26 construct": "purchased Eurofin/DiscoverX", "settings": "kinase NEK1 (Entrez NEK1)", "outline": "as §1"}}, "data": [{"smiles": "CC(C)C(=O)N1CCN(c2ccc(NC(=O)c3cc4ccccc4o3)cc2Cl)CC1", "note": "[Compound 21]", "values": [{"measurement": "Percent Control", "setting": "[1]", "value": 57, "unit": "%"}, {"measurement": "Percent Control", "setting": "[2]", "value": 100, "unit": "%"}, {"measurement": "Percent Control", "setting": "[3]", "value": 29, "unit": "%"}, {"measurement": "Percent Control", "setting": "[4]", "value": 94, "unit": "%"}, {"measurement": "Percent Control", "setting": "[5]", "value": 100, "unit": "%"}, {"measurement": "Percent Control", "setting": "[6]", "value": 79, "unit": "%"}, {"measurement": "Percent Control", "setting": "[7]", "value": 100, "unit": "%"}, {"measurement": "Percent Control", "setting": "[8]", "value": 98, "unit": "%"}, {"measurement": "Percent Control", "setting": "[9]", "value": 100, "unit": "%"}, {"measurement": "Percent Control", "setting": "[10]", "value": 63, "unit": "%"}, {"measurement": "Percent Control", "setting": "[11]", "value": 95, "unit": "%"}, {"measurement": "Percent Control", "setting": "[12]", "value": 94, "unit": "%"}, {"measurement": "Percent Control", "setting": "[13]", "value": 94, "unit": "%"}, {"measurement": "Percent Control", "setting": "[14]", "value": 79, "unit": "%"}, {"measurement": "Percent Control", "setting": "[15]", "value": 76, "unit": "%"}, {"measurement": "Percent Control", "setting": "[16]", "value": 100, "unit": "%"}, {"measurement": "Percent Control", "setting": "[17]", "value": 87, "unit": "%"}, {"measurement": "Percent Control", "setting": "[18]", "value": 98, "unit": "%"}, {"measurement": "Percent Control", "setting": "[19]", "value": 80, "unit": "%"}, {"measurement": "Percent Control", "setting": "[20]", "value": 92, "unit": "%"}, {"measurement": "Percent Control", "setting": "[21]", "value": 97, "unit": "%"}, {"measurement": "Percent Control", "setting": "[22]", "value": 81, "unit": "%"}, {"measurement": "Percent Control", "setting": "[23]", "value": 97, "unit": "%"}, {"measurement": "Percent Control", "setting": "[24]", "value": 99, "unit": "%"}, {"measurement": "Percent Control", "setting": "[25]", "value": 99, "unit": "%"}, {"measurement": "Percent Control", "setting": "[26]", "value": 77, "unit": "%"}]}]}
